Data published in patent US20230026789A1, “METHODS, SYSTEMS, AND TOOLS FOR LONGEVITY-RELATED APPLICATIONS” (SPRING DISCOVERY, INC., priority 2020, published 2023).
Counter-ions that a name gives are not always drawn.

Key:
[1] = tested on: T cells in rVSV-ΔG-mCherry-infected PBMCs; type: cell-based, human
[2] = tested on: T cells in rVSV-ΔG-mCherry-infected PBMCs; type: cell-based, human; remark: listed apart in the source
[3] = tested on: T cells in rVSV-ΔG-mCherry-infected PBMCs; assay: On-age and off-age scores from T-cell image embeddings; type: cell-based, human; details: T cells from older donors vs untreated controls
[4] = tested on: rVSV-infected PBMCs from older donors; type: cell-based, human
[5] = tested on: rVSV-ΔG-mCherry-infected PBMCs from older donors; type: cell-based, human
[6] = tested on: rVSV-ΔG-mCherry-infected PBMCs
late stage COVID-19 = details: cited from earlier work

Molecule | percentage of reticular T-cell mitochondria [1] | T-cell age score / aging model readout vs old untreated controls [2] | off-age effects (change orthogonal to age distances) [3] | on-age score (distance from young controls) [3] | outcome of screen ranked by immune aging score and COVID-19 cytokine score [4] | IL-1β level vs old untreated control PBMCs [5] | MCP1 level vs old untreated control PBMCs [5] | TNFα level vs old untreated control PBMCs [5] | less T cells relative to vehicle-only controls [6] [%] | more dead and infected monocytes relative to vehicle-only controls [6] [%] | percentage of T cells [6] | percentage of dead cells and infected monocytes [6] | patients who lowered their oxygen intake (late stage COVID-19; 15 of 20 late stage COVID-19 patients) [%] | patients with lung lesion opacity absorbed on CT scans (late stage COVID-19; 19 patients) [%] | fever after treatment (late stage COVID-19; within a few days after treatment)
CC(C)[C@]12O[C@H]1[C@@H]1O[C@@]13[C@@]1(C)CCC4=C(COC4=O)[C@@H]1C[C@@H]1O[C@@]13C2=O [Triptonide] | dose-dependent decrease | from an older phenotype to a younger phenotype | significant | significantly shifted | identified as a therapy with potential for rejuvenating the aging immune system | significant differences at one or more doses | significant, dose-dependent reduction | significant differences at one or more doses | 19 | 21 | decrease | significant increase | – | – | –
COC(=O)/C=C/C(=O)OC [dimethyl fumarate, reference compound] | – | – | – | did not improve | – | – | – | – | – | – | – | – | – | – | –
Tocilizumab: IL-6 targeting therapy tested in late stage COVID-19 | – | – | – | – | – | – | – | – | – | – | – | – | 75.0 | 90.5 | returned to normal
